According to patent publication US11512090B2, “Muscarinic acetylcholine M1 receptor antagonists” (PIPELINE THERAPEUTICS, INC., priority 2018, dated 2022):
Read-outs that look alike come from different tables or passages of the source.

Legend:
Assay type in all cases: cell-based
[1] = molecular target: T1, M2 (Homo sapiens, UniProt P08172); experiment: In vitro functional assay of muscarinic acetylcholine receptor activity, M2; conditions: antagonist IC50 at M2; read-out: M2 IC50
T1 sequence (P08172 1-466): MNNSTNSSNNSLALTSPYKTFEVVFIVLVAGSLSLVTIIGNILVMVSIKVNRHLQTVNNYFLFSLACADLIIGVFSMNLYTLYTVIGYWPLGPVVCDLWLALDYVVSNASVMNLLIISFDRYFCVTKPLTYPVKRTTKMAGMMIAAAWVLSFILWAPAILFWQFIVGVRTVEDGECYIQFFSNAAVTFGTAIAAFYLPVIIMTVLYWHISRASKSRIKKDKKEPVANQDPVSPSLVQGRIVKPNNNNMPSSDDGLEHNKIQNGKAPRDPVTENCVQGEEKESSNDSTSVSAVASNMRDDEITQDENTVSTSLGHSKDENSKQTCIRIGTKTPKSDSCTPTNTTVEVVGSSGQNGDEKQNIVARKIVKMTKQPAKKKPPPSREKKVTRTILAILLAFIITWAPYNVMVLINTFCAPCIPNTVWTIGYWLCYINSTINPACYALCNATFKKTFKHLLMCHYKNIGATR
Description: [The procedure below names another target; the source lists this target under the same test.] (§1) CHO-K1 cells stably expressing human M1 receptor with Aequorin (Perkin Elmer) were grown in F12 media, 10% FBS with 0.4 mg/mL geneticin and […]. Cells were grown to confluence and frozen down to be assayed at a later date. On the day of the experiment cells were thawed in a 37° C. water bath, resuspended in DMEM/HAM's F12 with HEPES (Invitrogen)+0.1% protease-free BSA (assay buffer), and spun down to remove freezing media. After centrifugation, supernatant was removed and 12 mL of assay buffer was added. Coelenterazine h (Promega) was added to the cells at a final concentration of 5 uM and incubated for 4 hours at room temperature in the dark. Compound master plate-96 deep well (Corning) were formatted in a 8-point DRC in assay buffer with 0.2% DMSO at a starting concentration of 60 uM (2×). After 4 hours of incubation, cells were plated at a concentration of 5×10^5 cells/well in 96 well white-walled, tissue culture-treated, clear-bottom plates (VWR). Compounds were added to the daughter plate, and cells plus compound were incubated at room temperature for 30 minutes in the dark.
(§2) Calcium flux was measured using the FlexStation 3 (Molecular Devices). To measure the antagonist dose-response, the EC80 of Acetylcholine was injected to the daughter plate using the automated compound transfer function of the Flex Station, and the increase in luminescence was measured over time. Antagonist activity was analyzed as a concentration dependent decrease in the EC80 acetylcholine response. Dose response curves were generated using Prism (GraphPad Software). The IC50 of the compounds was calculated from the dose response curve.

[2] = molecular target: T2, human M1 receptor (Homo sapiens, UniProt P11229); experiment: In vitro functional assay of muscarinic acetylcholine receptor activity (aequorin calcium flux, antagonist mode vs EC80 acetylcholine), M1
T2 sequence (P11229 1-460): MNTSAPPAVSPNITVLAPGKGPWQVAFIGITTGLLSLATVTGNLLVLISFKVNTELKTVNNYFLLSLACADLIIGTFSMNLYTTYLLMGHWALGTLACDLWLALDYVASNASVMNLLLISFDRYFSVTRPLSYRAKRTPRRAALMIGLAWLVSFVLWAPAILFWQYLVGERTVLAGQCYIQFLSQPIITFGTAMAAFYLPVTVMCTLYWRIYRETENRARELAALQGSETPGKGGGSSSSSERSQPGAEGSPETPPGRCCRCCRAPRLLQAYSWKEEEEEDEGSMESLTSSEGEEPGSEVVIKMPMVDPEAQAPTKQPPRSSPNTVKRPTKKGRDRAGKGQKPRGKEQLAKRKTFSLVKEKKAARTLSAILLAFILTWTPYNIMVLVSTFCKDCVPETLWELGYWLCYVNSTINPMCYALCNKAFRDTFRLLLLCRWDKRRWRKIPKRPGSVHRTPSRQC
Description: as §1, §2

[3] = molecular target: M3 (Homo sapiens, UniProt P20309); experiment: In vitro functional assay of muscarinic acetylcholine receptor activity, M3; conditions: antagonist IC50 at M3; read-out: M3 IC50
Description: [The procedure below names another target; the source lists this target under the same test.] as §1, §2

[4] = CHO-K1 cells stably expressing human M1 receptor with Aequorin, decrease in EC80 acetylcholine response, read-out: M1 IC50

M3, sequence (P20309 whole entry): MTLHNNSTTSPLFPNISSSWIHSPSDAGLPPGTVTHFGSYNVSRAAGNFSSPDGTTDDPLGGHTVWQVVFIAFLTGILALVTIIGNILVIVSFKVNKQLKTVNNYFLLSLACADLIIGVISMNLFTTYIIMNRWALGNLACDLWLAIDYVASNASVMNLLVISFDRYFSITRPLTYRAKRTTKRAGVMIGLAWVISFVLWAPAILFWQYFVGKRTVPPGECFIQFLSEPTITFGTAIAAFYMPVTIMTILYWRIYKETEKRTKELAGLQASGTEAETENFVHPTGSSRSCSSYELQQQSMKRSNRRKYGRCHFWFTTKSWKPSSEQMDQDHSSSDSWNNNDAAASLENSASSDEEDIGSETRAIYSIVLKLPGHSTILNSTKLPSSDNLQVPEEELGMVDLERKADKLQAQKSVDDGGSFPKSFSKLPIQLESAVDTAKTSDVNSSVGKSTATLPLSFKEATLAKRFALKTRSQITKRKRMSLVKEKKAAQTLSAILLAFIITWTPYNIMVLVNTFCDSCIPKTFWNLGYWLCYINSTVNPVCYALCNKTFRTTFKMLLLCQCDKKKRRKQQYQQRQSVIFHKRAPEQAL

SMILES | IC50 [1] [nM] | IC50 [2, 4] [nM] | IC50 [3] [nM] | IC50 [2] [nM]
CC1CN(c2ccc(F)cn2)CCN1C(=O)[C@H]1C[C@H](Oc2cccc3ncsc23)C1 (stereo partly drawn) [Example 5, ((1R,3R)-3-(benzo[d]thiazol-7-yloxy)cyclobutyl)(4-(5-fluoropyridin-2-yl)-2-methylpiperazin-1-yl)methanone] | > 10000 | > 10000 | > 10000 | 
Cc1cncc(Cl)c1N1CCN(C(=O)CCS(=O)(=O)c2cccc3ncsc23)CC1 [Example 107, 3-(benzo[d]thiazol-7-ylsulfonyl)-1-(4-(3-chloro-5-methylpyridin-4-yl)piperazin-1-yl)propan-1-one] | > 10000 | 1000 to 10000 | 1000 to 10000 | 
N#Cc1ccc(N2C3CCC2CN(C(=O)CCS(=O)(=O)c2cccc4ncsc24)C3)cn1 [Example 146, 5-{3-[3-(1,3-benzothiazole-7-sulfonyl)propanoyl]-3,8-diazabicyclo[3.2.1]octan-8-yl}pyridine-2-carbonitrile] | 100 to 1000 |  | 100 to 1000 | < 100
Cc1cc(F)cnc1N1CCN(C(=O)CCCc2cccc3ncccc23)[C@H](C)C1 [Example 66, (R)-1-(4-(5-fluoro-3-methylpyridin-2-yl)-2-methylpiperazin-1-yl)-4-(quinolin-5-yl)butan-1-one] | 100 to 1000 |  | 100 to 1000 | 
CC1CN(C(=O)CCS(=O)(=O)c2cccc3ncsc23)CC(C)N1c1ccc(C#N)cn1 (centres unmarked) [Example 128, 6-{4-[3-(1,3-benzothiazole-7-sulfonyl)propanoyl]-2,6-dimethylpiperazin-1-yl}pyridine-3-carbonitrile] | 1000 to 10000 |  | 1000 to 10000 | 
CC1CN(c2ccc(F)cn2)CCN1C(=O)CCCc1cccc2ncccc12 (centres unmarked) [Example 58, 1-(4-(5-fluoropyridin-2-yl)-2-methylpiperazin-1-yl)-4-(quinolin-5-yl)butan-1-one] | 1000 to 10000 |  | 1000 to 10000 | 
N#Cc1cc(N2CCN(C(=O)CCS(=O)(=O)c3cccc4ncsc34)CC2)ccn1 [Example 100, 4-(4-(3-(benzo[d]thiazol-7-ylsulfonyl)propanoyl)piperazin-1-yl)picolinonitrile] | > 10000 |  | 1000 to 10000 | 
N#Cc1ccc(N2C3CCC2CN(C(=O)CCNCc2c(F)ccc4ncnn24)C3)nc1 [Example 41, 6-(3-{3-[({6-fluoro-[1,2,4]triazolo[1,5-a]pyridin-5-yl}methyl)amino]propanoyl}-3,8-diazabicyclo[3.2.1]octan-8-yl)pyridine-3-carbonitrile] |  |  |  | < 100
Cc1cc(F)cnc1N1CCN(C(=O)CCCc2cccc3ncccc23)C(C)C1 (centres unmarked) [Example 59, 1-(4-(5-fluoro-3-methylpyridin-2-yl)-2-methylpiperazin-1-yl)-4-(quinolin-5-yl)butan-1-one] | < 100 |  | 100 to 1000 | 
N#Cc1ccc(N2C3CCC2CN(C(=O)CCCc2cccc4ncnn24)C3)nc1 [Example 199, 6-[3-(4-{[1,2,4]triazolo[1,5-a]pyridin-5-yl}butanoyl)-3,8-diazabicyclo[3.2.1]octan-8-yl]pyridine-3-carbonitrile] |  |  |  | < 100
CC1CN(C(=O)CCCc2cccc3ncccc23)CCN1c1ccc(F)cn1 (centres unmarked) [Example 61, 1-(4-(5-fluoropyridin-2-yl)-3-methylpiperazin-1-yl)-4-(quinolin-5-yl)butan-1-one] | 1000 to 10000 |  | 1000 to 10000 | 
Cc1cc(F)cnc1N1CCN(C(=O)CCCc2cccc3ncccc23)CC1C (centres unmarked) [Example 62, 1-(4-(5-fluoro-3-methylpyridin-2-yl)-3-methylpiperazin-1-yl)-4-(quinolin-5-yl)butan-1-one] | 100 to 1000 |  | 1000 to 10000 | 
Cc1cc(F)cnc1N1CCN(C(=O)CCCc2cccc3ncoc23)[C@@H](C)C1 [Example 83, (S)-4-(benzo[d]oxazol-7-yl)-1-(4-(5-fluoro-3-methylpyridin-2-yl)-2-methylpiperazin-1-yl)butan-1-one] | 1000 to 10000 |  | 1000 to 10000 | 
C[C@@H]1CN(c2ncc(F)cc2Cl)CCN1C(=O)CCCc1cccc2ncccc12 [Example 80, (R)-1-(4-(3-chloro-5-fluoropyridin-2-yl)-2-methylpiperazin-1-yl)-4-(quinolin-5-yl)butan-1-one] | 1000 to 10000 |  | 1000 to 10000 | 
O=C(CCCc1cccc2ncccc12)N1CCN(c2ccc(F)cn2)CC1 [Example 51, 1-(4-(5-fluoropyridin-2-yl)piperazin-1-yl)-4-(quinolin-5-yl)butan-1-one] | 1000 to 10000 |  | > 10000 | 
CC1CN(c2ccc(C#N)cn2)CC(C)N1C(=O)CCS(=O)(=O)c1cccc2ncsc12 (centres unmarked) [Example 134, 6-{4-[3-(1,3-benzothiazole-7-sulfonyl)propanoyl]-3,5-dimethylpiperazin-1-yl}pyridine-3-carbonitrile] | > 10000 |  | > 10000 | 
N#Cc1ccc(N2C3CCC2CN(C(=O)CCCc2cccn4ncnc24)C3)nc1 [Example 198, 6-[3-(4-{[1,2,4]triazolo[1,5-a]pyridin-8-yl}butanoyl)-3,8-diazabicyclo[3.2.1]octan-8-yl]pyridine-3-carbonitrile] |  |  |  | < 100
Cc1ccc(N2C3CCC2CN(C(=O)CCOCc2cccn4ncnc24)C3)nn1 [Example 189, 1-[8-(6-methylpyridazin-3-yl)-3,8-diazabicyclo[3.2.1]octan-3-yl]-3-({[1,2,4]triazolo[1,5-a]pyridin-8-yl}methoxy)propan-1-one] |  |  |  | 100 to 1000
Cc1cc(F)cnc1N1CCN(C(=O)CCCc2cccc3ncccc23)[C@@H](C)C1 [Example 6, 1-[(2S)-4-(5-fluoro-3-methylpyridin-2-yl)-2-methylpiperazin-1-yl]-4-(quinolin-5-yl)butan-1-one] | 1000 to 10000 |  | 1000 to 10000 | 
O=Cc1ccc(N2C3CCC2CN(C(=O)CCOCc2cccn4ncnc24)C3)nc1 [Example 190, 6-{3-[3-({[1,2,4]triazolo[1,5-a]pyridin-8-yl}methoxy)propanoyl]-3,8-diazabicyclo[3.2.1]octan-8-yl}pyridine-3-carbaldehyde] |  |  |  | < 100
Cc1cc(F)cnc1N1CCN(C(=O)CCCc2cccc3nc(N)sc23)[C@@H](C)C1 [Example 20, 4-(2-amino-1,3-benzothiazol-7-yl)-1-[(2S)-4-(5-fluoro-3-methylpyridin-2-yl)-2-methylpiperazin-1-yl]butan-1-one] | 1000 to 10000 |  | 1000 to 10000 | 
N#Cc1ccc(N2C3CCC2CN(C(=O)CCN(Cc2cccc4ncnn24)C2CCC2)C3)nc1 [Example 191, 6-(3-{3-[cyclobutyl({[1,2,4]triazolo[1,5-a]pyridin-5-yl}methyl)amino]propanoyl}-3,8-diazabicyclo[3.2.1]octan-8-yl)pyridine-3-carbonitrile] |  | 1000 to 10000 |  | 
O=C(CCNCc1cccc2ncsc12)N1CCN(c2ccc(C(F)(F)F)cn2)CC1 [Example 119, 3-{[(1,3-benzothiazol-7-yl)methyl)amino}-1-{4-[5-(trifluoromethyl)pyridin-2-yl]piperazin-1-yl}propan-1-one] |  | 1000 to 10000 | > 10000 | 
O=C([C@H]1C[C@H](Nc2cccc3ncccc23)C1)N1CC2CCC(C1)N2c1ccncc1 [Example 196, N-[(1r,3r)-3-[8-(pyridin-4-yl)-3,8-diazabicyclo[3.2.1]octane-3-carbonyl]cyclobutyl]quinolin-5-amine] |  | 1000 to 10000 |  | 
